Data: DBAASP
Values after ≈ are worked out from the molar mass of the structure shown. Blank lines part the entries; values can stand above or below the compound they belong to.

Experiments:
Assay in all cases: ≥ marks a high value that may be exact or a test limit, other limits are often not marked, values filed in µg/mL are converted to µM
[1] = tested on: Bacillus anthracis Sterne 34F2
[2] = tested on: Bacillus subtilis var. niger ATCC 9372
Escherichia coli K91BK = tested on: Escherichia coli K91BK
Enterococcus faecalis = tested on: Enterococcus faecalis
Escherichia coli W3110 = tested on: Escherichia coli W3110
[3] = tested on: Pseudomonas aeruginosa PAK
Staphylococcus aureus = tested on: Staphylococcus aureus
[4] = tested on: Streptococcus gordonii Challis DL1
[5] = tested on: Streptococcus mitis ATCC 903
[6] = tested on: Streptococcus mutans UA159
[7] = tested on: Streptococcus sanguinis NY101
[8] = tested on: Streptococcus sobrinus ATCC 33478
[9] = tested on: Escherichia coli ATCC 25922
Escherichia coli = tested on: Escherichia coli
[10] = tested on: Salmonella enterica subsp. enterica serovar Enteritidis
Salmonella sp. = tested on: Salmonella sp.
[11] = tested on: Staphylococcus aureus ATCC 29213
[12] = tested on: Staphylococcus aureus ATCC 43300
Yersinia enterocolitica = tested on: Yersinia enterocolitica
Aspergillus fumigatus = tested on: Aspergillus fumigatus
Bibersteinia trehalosi = tested on: Bibersteinia trehalosi
[13] = tested on: Corynebacterium pseudotuberculosis ATCC 19410
Klebsiella pneumoniae = tested on: Klebsiella pneumoniae
[14] = tested on: Mannheimia haemolytica Serovar 1
[15] = tested on: Mannheimia haemolytica Serovar 2
[16] = tested on: Mannheimia haemolytica Serovar 6
Pasteurella multocida = tested on: Pasteurella multocida
[17] = tested on: Pseudomonas aeruginosa PAO1
[18] = tested on: Salmonella enterica subsp. arizonae
[19] = tested on: Bacillus subtilis ATCC 6633
Escherichia coli O111 = tested on: Escherichia coli O111
[20] = tested on: Staphylococcus aureus FDA 209P

MIC (Enterococcus faecalis): ≥ 340 µM
MIC (Escherichia coli W3110): ≥ 340 µM
MIC [3]: ≥ 340 µM
MIC (Staphylococcus aureus): > 340 µM
MIC [4]: ≥ 340 µM
MIC [5]: ≥ 340 µM
MIC [6]: ≥ 340 µM
MIC [7]: ≥ 340 µM
MIC [8]: ≥ 340 µM
SMILES: NC(=O)CC[C@H](NC(=O)[C@H](Cc1c[nH]c2ccccc12)NC(=O)[C@H](Cc1c[nH]c2ccccc12)NC(=O)[C@H](CC(N)=O)NC(=O)[C@H](Cc1ccc(O)cc1)NC(=O)[C@H](Cc1c[nH]c2ccccc12)NC(=O)[C@@H](N)Cc1c[nH]c2ccccc12)C(=O)N[C@@H](CC(=O)O)C(=O)N[C@@H](Cc1c[nH]c2ccccc12)C(N)=O [WWYNWWQDW]

MIC [9]: > 39.8 µM
MIC (Escherichia coli): > 39.8 µM
MIC [10]: ≥ 39.8 µM
MIC (Salmonella sp.): ≥ 39.8 µM
MIC [11]: > 39.8 µM
MIC [12]: > 39.8 µM
MIC (Yersinia enterocolitica): ≥ 39.8 µM
SMILES: CC[C@H](C)[C@H](NC(=O)[C@H](CCC(N)=O)NC(=O)[C@@H](N)CCCN=C(N)N)C(=O)N[C@H](C(=O)N[C@@H](CCCN=C(N)N)C(=O)N[C@@H](CCCN=C(N)N)C(=O)N[C@@H](CCSC)C(=O)N[C@@H](CCC(N)=O)C(=O)N[C@@H](CCCN=C(N)N)C(N)=O)[C@@H](C)CC [RQIIRRMQR]

MIC [19]: 19.6 µM (≈ 64 µg/mL)
MIC [9]: 3.01 µM (≈ 9.79 µg/mL)
MIC (Escherichia coli O111): 6.01 µM (≈ 19.6 µg/mL)
MIC [20]: 3.01 µM (≈ 9.79 µg/mL)
SMILES: CC[C@H](C)[C@H](NC(=O)CNC(=O)[C@H](CCC(=O)O)NC(=O)[C@H](Cc1c[nH]c2ccccc12)NC(=O)[C@@H](NC(=O)[C@@H](N)CO)[C@@H](C)CC)C(=O)N[C@@H](CCCCN)C(=O)N[C@@H](CC(N)=O)C(=O)N[C@@H](C)C(=O)NCC(=O)N[C@@H](CCCCN)C(=O)NCC(=O)N[C@@H](Cc1ccccc1)C(=O)N[C@@H](CC(C)C)C(=O)N[C@H](C(=O)N[C@@H](CO)C(=O)N[C@H](C(=O)N[C@@H](CC(C)C)C(=O)N[C@@H](CC(=O)O)C(=O)N[C@@H](CCCCN)C(=O)N[C@H](C(=O)N[C@@H](CCCN=C(N)N)C(=O)N[C@H]1CSSC[C@@H](C(=O)N[C@@H](CC(N)=O)C(=O)N2CCC[C@H]2C(=O)O)NC(=O)CNC(=O)CNC(=O)[C@H](C)NC(=O)[C@H](C(C)C)NC(=O)[C@H](CCCCN)NC1=O)C(C)C)[C@@H](C)CC)C(C)C [SIWEGIKNAGKGFLVSILDKVRCKVAGGCNP]

MIC (Aspergillus fumigatus): 31.4 µM (≈ 40 µg/mL)
MIC (Bibersteinia trehalosi): 15.7 µM (≈ 20 µg/mL)
MIC [13]: 15.7 µM (≈ 20 µg/mL)
MIC (Klebsiella pneumoniae): 9.18 µM (≈ 11.7 µg/mL)
MIC (Pasteurella multocida): 15.7 µM (≈ 20 µg/mL)
MIC [17]: 7.85 µM (≈ 9.99 µg/mL)
MIC [18]: 15.7 µM (≈ 20 µg/mL)
MIC (Staphylococcus aureus): > 15.7 µM
SMILES: CC[C@H](C)[C@H](NC(=O)[C@@H](NC(=O)[C@H](Cc1cnc[nH]1)NC(=O)[C@@H](NC(=O)[C@@H](NC(=O)[C@H](CCCCN)NC(=O)[C@H](CCCN=C(N)N)NC(=O)[C@@H](NC(=O)[C@@H](NC(=O)[C@@H](N)CCCN=C(N)N)[C@@H](C)CC)[C@@H](C)CC)[C@@H](C)CC)[C@@H](C)CC)[C@@H](C)CC)C(N)=O [RIIRKIIHII]
MIC [14]: 15.7 µM (≈ 20 µg/mL)
MIC [15]: 10.4 µM (≈ 13.3 µg/mL)
MIC [16]: 15.7 µM (≈ 20 µg/mL)

MIC [9]: > 34.1 µM
MIC (Escherichia coli): > 34.1 µM
MIC [10]: ≥ 34.1 µM
MIC (Salmonella sp.): ≥ 34.1 µM
MIC [11]: > 34.1 µM
MIC [12]: > 34.1 µM
MIC (Yersinia enterocolitica): ≥ 34.1 µM
SMILES: CC[C@H](C)[C@H](NC(=O)[C@H](CCCCN)NC(=O)[C@@H]1CCCN1C(=O)[C@H](CCC(N)=O)NC(=O)[C@@H](N)CCCN=C(N)N)C(=O)N1CCC[C@H]1C(=O)N[C@@H](CCCN=C(N)N)C(=O)N[C@@H](CCSC)C(=O)N1CCC[C@H]1C(=O)N[C@@H](Cc1c[nH]c2ccccc12)C(=O)N[C@@H](CCCN=C(N)N)C(N)=O [RQPKIPRMPWR]

Further lines, the compound ahead of its results:

SMILES: CC[C@H](C)[C@H](NC(=O)[C@H](CC(N)=O)NC(=O)[C@H](CCCCN)NC(C)=O)C(=O)N[C@@H](CCCN=C(N)N)C(=O)N[C@@H](CCCN=C(N)N)C(=O)N[C@H](C(=O)N[C@H](C(=O)N[C@@H](CCCN=C(N)N)C(=O)N[C@@H](CCCCN)C(=O)N[C@H](C(=O)N[C@H](C(=O)N[C@@H](Cc1cnc[nH]1)C(=O)N[C@H](C(=O)N[C@H](C(=O)N[C@@H](CCCCN)C(=O)N[C@@H](CCCCN)C(=O)N[C@@H](Cc1ccc(O)cc1)C(=O)NCC(N)=O)[C@@H](C)CC)[C@@H](C)CC)[C@@H](C)CC)[C@@H](C)CC)[C@@H](C)CC)[C@@H](C)CC [KNIRRIIRKIIHIIKKYG]
MIC [1]: 6.25 µM (≈ 14.4 µg/mL)
MIC [2]: 0.93 µM (≈ 2.14 µg/mL)
MIC (Escherichia coli K91BK): ≥ 100 µM

SMILES: CC[C@H](C)[C@H](NC(=O)[C@H](Cc1cnc[nH]1)NC(=O)[C@@H](NC(=O)[C@@H](NC(=O)[C@H](CCCCN)NC(=O)[C@H](CCCN=C(N)N)NC(=O)[C@@H](NC(=O)[C@@H](NC(=O)[C@@H](N)CCCN=C(N)N)[C@@H](C)CC)[C@@H](C)CC)[C@@H](C)CC)[C@@H](C)CC)C(=O)N[C@H](C(=O)N[C@@H](CCCCN)C(N)=O)[C@@H](C)CC [RIIRKIIHIIK]
MIC (Aspergillus fumigatus): 28.5 µM (≈ 40 µg/mL)
MIC (Bibersteinia trehalosi): 14.3 µM (≈ 20 µg/mL)
MIC [13]: 14.3 µM (≈ 20 µg/mL)
MIC (Klebsiella pneumoniae): 9.48 µM (≈ 13.3 µg/mL)
MIC [14]: 14.3 µM (≈ 20 µg/mL)
MIC [15]: 7.13 µM (≈ 9.99 µg/mL)
MIC [16]: 7.13 µM (≈ 9.99 µg/mL)
MIC (Pasteurella multocida): 14.3 µM (≈ 20 µg/mL)
MIC [17]: 3.56 µM (≈ 5 µg/mL)
MIC [18]: 14.3 µM (≈ 20 µg/mL)
MIC (Staphylococcus aureus): > 14.3 µM

SMILES: CC[C@H](C)[C@H](NC(=O)CN)C(=O)N[C@@H](Cc1ccccc1)C(=O)N[C@H](C(=O)N[C@@H](CC(C)C)C(=O)N[C@@H](Cc1ccccc1)C(=O)N[C@@H](CCCCN)C(=O)NCC(=O)N[C@@H](C)C(=O)N[C@@H](C)C(=O)N[C@@H](CCCCN)C(=O)N[C@@H](CC(C)C)C(=O)N[C@@H](CC(C)C)C(=O)NCC(=O)N[C@@H](CCCCN)C(=O)N[C@H](C(=O)N[C@@H](CC(C)C)C(=O)N[C@@H](C)C(=O)N[C@@H](CCCCN)C(=O)N[C@@H](CCC(=O)O)C(=O)N[C@@H](C)C(=O)NCC(=O)N[C@@H](CCCCN)C(=O)N[C@H](C(=O)NCC(=O)N[C@@H](CC(C)C)C(=O)N[C@@H](CCC(=O)O)C(=O)N[C@@H](CC(C)C)C(=O)N[C@@H](CCSC)C(=O)N[C@@H](C)C(=O)N[C@H]1CSSC[C@@H](C(=O)O)NC(=O)[C@H](CCC(N)=O)NC(=O)[C@H](CC(N)=O)NC(=O)[C@H]([C@@H](C)O)NC(=O)[C@H](C(C)C)NC(=O)[C@H](CCCCN)NC1=O)[C@@H](C)O)[C@@H](C)O)[C@@H](C)O [GIFTLFKGAAKLLGKTLAKEAGKTGLELMACKVTNQC]
MIC [9]: 2.8 µM (≈ 10.8 µg/mL)
MIC [20]: 4.4 µM (≈ 17 µg/mL)

SMILES: CC(=O)N[C@@H](CCCCN)C(=O)N[C@@H](CCCCN)C(=O)N[C@@H](Cc1c[nH]c2ccccc12)C(=O)N[C@@H](CCCCN)C(=O)N[C@@H](CCCCN)C(=O)N[C@@H](Cc1c[nH]c2ccccc12)C(=O)N[C@@H](CCCCN)C(=O)N[C@@H](CCCCN)C(=O)N[C@@H](Cc1c[nH]c2ccccc12)C(=O)N[C@@H](CCCCN)C(=O)N[C@@H](CCCCN)C(N)=O [KKWKKWKKWKK]
MIC [1]: ≥ 100 µM
MIC [2]: ≥ 50 µM
MIC (Escherichia coli K91BK): ≥ 100 µM

SMILES: CC[C@H](C)[C@H](NC(=O)[C@H](Cc1ccccc1)NC(=O)[C@H](Cc1cnc[nH]1)NC(=O)[C@H](CCCCN)NC(=O)[C@@H](NC(=O)[C@@H](N)Cc1ccccc1)[C@@H](C)CC)C(=O)N[C@@H](Cc1cnc[nH]1)C(=O)N[C@@H](CCCN=C(N)N)C(=O)N[C@@H](Cc1ccccc1)C(N)=O [FIKHFIHRF]
MIC (Enterococcus faecalis): ≥ 402 µM
MIC (Escherichia coli W3110): ≥ 402 µM
MIC [3]: ≥ 402 µM
MIC (Staphylococcus aureus): > 402 µM
MIC [4]: ≥ 402 µM
MIC [5]: ≥ 402 µM
MIC [6]: ≥ 100 µM
MIC [7]: ≥ 100 µM
MIC [8]: ≥ 100 µM
